Test results: US20100152047A1, “Piperazine Compounds Whith a Herbicidal Action” (BASF SE, priority 2007, published 2010)

Tests used:
Format in all cases: in vivo
[1] = tested on: SETVI (Setaria viridis, green foxtail); assay: greenhouse herbicidal test, post-emergence, SETVI; conditions: post-emergence method, application rate 0.5 kg/ha, scale from 0 to 100
Excerpt: (§1) The culture containers used were plastic flowerpots containing loamy sand with approximately 3.0% of humus as the substrate. The seeds of the test plants were sown separately for each species.
(§2) For the post-emergence treatment, the test plants were first grown to a height of 3 to 15 cm, depending on the plant habit, and only then treated with the active ingredients which had been suspended or emulsified in water. For this purpose, the test plants were either sown directly and grown in the same containers, or they were first grown separately as seedlings and transplanted into the test containers a few days prior to treatment.
(§3) Depending on the species, the plants were kept at 10-25° C. or 20-35° C. The test period extended over 2 to 4 weeks. During this time, the plants were tended, and their response to the individual treatments was evaluated.
(§4) Evaluation was carried out using a scale from 0 to 100. 100 means no emergence of the plants, or complete destruction of at least the aerial moieties, and 0 means no damage, or normal course of growth. A good herbicidal activity is given at values of at least 70 and a very good herbicidal activity is given at values of at least 85.
(§5) The plants used in the greenhouse experiments belonged to the following species: […]

[2] = tested on: AMARE (Amaranthus retoflexus, redroot pigweed); assay: greenhouse herbicidal test, post-emergence, AMARE; conditions: post-emergence method, application rate 0.5 kg/ha, scale from 0 to 100
Excerpt: as §1, §2, §3, §4, §5

[3] = tested on: CHEAL (Chenopodium album, common lambsquarters); assay: greenhouse herbicidal test, post-emergence, CHEAL; conditions: post-emergence method, application rate 0.5 kg/ha, scale from 0 to 100
Excerpt: as §1, §2, §3, §4, §5

[4] = tested on: LOLMU (Lolium multiflorum, Italian ryegrass); assay: greenhouse herbicidal test, post-emergence, LOLMU; conditions: post-emergence method, application rate 0.5 kg/ha, scale from 0 to 100
Excerpt: as §1, §2, §3, §4, §5

[5] = tested on: SETVI (Setaria viridis, green foxtail); assay: greenhouse herbicidal test, pre-emergence, SETVI; conditions: pre-emergence method, application rate 0.5 kg/ha, scale from 0 to 100
Excerpt: as §1
(§6) For the pre-emergence treatment, the active ingredients, which had been suspended or emulsified in water, were applied directly after sowing by means of finely distributing nozzles. The containers were irrigated gently to promote germination and growth and subsequently covered with transparent plastic hoods until the plants had rooted. This cover caused uniform germination of the test plants, unless this has been impaired by the active ingredients.
as §3, §4, §5

[6] = tested on: CHEAL (Chenopodium album, common lambsquarters); assay: greenhouse herbicidal test, pre-emergence, CHEAL; conditions: pre-emergence method, application rate 0.5 kg/ha, scale from 0 to 100
Excerpt: as §1, §6, §3, §4, §5

[7] = tested on: APESV (Apera spica-venti, windgrass); assay: greenhouse herbicidal test, post-emergence, APESV; conditions: post-emergence method, application rate 0.5 kg/ha, scale from 0 to 100
Excerpt: as §1, §2, §3, §4, §5

[8] = tested on: GALAP (Galium aparine, catchweed bedstraw); assay: greenhouse herbicidal test, post-emergence, GALAP; conditions: post-emergence method, application rate 0.5 kg/ha, scale from 0 to 100
Excerpt: as §1, §2, §3, §4, §5

SMILES	herbicidal activity against SETVI [1]	herbicidal activity against AMARE [2]	herbicidal activity against CHEAL [3]	further results
CN1C(=O)C(C)(Cc2ccccc2)N(C)C(=O)C1=Cc1ccccc1[N+](=O)[O-] (mixture of isomers) [Example 26]	good to very good	good to very good	–	–
CN1C(=O)C(C)(Cc2ccccc2)N(C)C(=O)C1=Cc1ccccc1C#N (racemic) [Example 7]	good to very good	good to very good	good to very good	–
CN1C(=O)C(C)(Cc2ccccc2)N(C)C(=O)C1=Cc1ccccc1Br (racemic) [Example 10]	good to very good	–	–	herbicidal activity against LOLMU [4]: good (A good herbicidal activity is given at values of at least 70)
CN1C(=O)C(C)(Cc2ccccc2)N(C)C(=O)C1=Cc1c(Cl)cccc1Br (racemic) [Example 11]	good to very good	good to very good	good to very good	–
CN1C(=O)C(C)(Cc2ccccc2)N(C)C(=O)C1=Cc1c(F)cccc1C#N (racemic) [Example 12]	good to very good	good to very good	good to very good	–
CN1C(=O)C(C)(Cc2ccccc2)N(C)C(=O)C1=Cc1c(Cl)cccc1C#N (racemic) [Example 13]	good to very good	good to very good	good to very good	–
COc1cccc(C#N)c1C=C1C(=O)N(C)C(C)(Cc2ccccc2)C(=O)N1C (racemic) [Example 14]	good to very good	–	good to very good	–
Cc1cccc(C#N)c1C=C1C(=O)N(C)C(C)(Cc2ccccc2)C(=O)N1C (racemic) [Example 16]	good to very good	good to very good	good to very good	–
CN1C(=O)C(C)(Cc2ccccc2)N(C)C(=O)C1=Cc1c(C#N)ccc(F)c1F (racemic) [Example 18]	good to very good	good to very good	good to very good	–
CC(C)C1(Cc2ccccc2)C(=O)N(C)C(=Cc2ccccc2C#N)C(=O)N1C (racemic) [Example 24]	–	good to very good	–	–
CN1C(=O)C(CO)(Cc2ccccc2)N(C)C(=O)C1=Cc1ccccc1C#N (racemic) [Example 25]	good to very good	–	good to very good	herbicidal activity against SETVI [5]: good (A good herbicidal activity is given at values of at least 70); herbicidal activity against CHEAL [6]: good (A good herbicidal activity is given at values of at least 70)
CCc1cccc(C#N)c1C=C1C(=O)N(C)C(C)(Cc2ccccc2)C(=O)N1C (racemic) [Example 29]	good to very good	–	–	–
CN1C(=O)C(C)(Cc2ccccc2)NC(=O)C1=Cc1ccccc1C#N (racemic) [Example 39]	good to very good	good to very good	good to very good	–
COc1cccc(Br)c1C=C1C(=O)N(C)C(C)(Cc2ccccc2)C(=O)N1C (racemic) [Example 43]	–	good to very good	–	herbicidal activity against APESV [7]: good (A good herbicidal activity is given at values of at least 70)
CN1C(=O)C(C)(Cc2ccccc2)NC(=O)C1=Cc1ccccc1[N+](=O)[O-] (racemic) [Example 44]	good to very good	good to very good	–	–
CCN1C(=O)C(=Cc2ccccc2[N+](=O)[O-])N(C)C(=O)C1(C)Cc1ccccc1 (racemic) [Example 47]	good to very good	good to very good	–	–
Cc1cccc([N+](=O)[O-])c1C=C1C(=O)N(C)C(C)(Cc2ccccc2)C(=O)N1C (racemic) [Example 56]	good to very good	good to very good	–	–
CN1C(=O)C(C)(Cc2ccc(Cl)cc2)N(C)C(=O)C1=Cc1ccccc1C#N (racemic) [Example 137]	–	–	–	herbicidal activity against GALAP [8]: good (A good herbicidal activity is given at values of at least 70)
CN1C(=O)C(C)(Cc2ccc(F)cc2)N(C)C(=O)C1=Cc1ccccc1C#N (racemic) [Example 138]	good to very good	good to very good	–	–
CCC1(Cc2ccccc2)C(=O)N(C)C(=Cc2ccccc2C#N)C(=O)N1C (stereo not shown) [Example 3, 2-(5-Benzyl-5-ethyl-1,4-dimethyl-3,6-dioxopiperazin-2-ylidenemethyl)-benzonitrile]	–	good to very good	good to very good	–
